Data published in ChEMBL document CHEMBL5143653, “4'-Nitrobiphenyl thioglucoside as the Smallest, fluorescent photosensitizer with cancer targeting ligand” (Bioorg Med Chem, 2022).

Legend:
[1] = Drug uptake in human PC-3 cells at 150 uM incubated under irradiation at 405 nm in presence of cytochalasin B by confocal laser scan fluorescence microscopy; type: ADME, cell-based; details: pc-3, 150 µM
[2] = Drug uptake in human PC-3 cells at 150 uM incubated under irradiation at 405 nm in presence of up top 25 mM glucose by confocal laser scan fluorescence microscopy; type: ADME, cell-based; details: pc-3, 150 µM
PC-3 [3] = assay: Dark toxicity in human PC-3 cells assessed as reduction in cell viability at 300 uM incubated under dark for 2 hrs by MTT assay; type: cell-based; details: pc-3, 2 h
[4] = Photodynamic cytotoxicity in human PC-3 cells assessed as reduction in cell viability under 405 nm irradiation exposure measured after 2 hrs by MTT assay; type: toxicity, cell-based
[5] = Drug uptake in human PC-3 cells at 150 uM incubated under irradiation at 405 nm by confocal laser scan fluorescence microscopy; type: ADME, cell-based; details: pc-3, 150 µM
PC-3 [6] = assay: Dark toxicity in human PC-3 cells assessed as reduction in cell viability at 150 uM incubated under dark for 2 hrs by MTT assay; type: cell-based; details: pc-3, 2 h

Drug uptake [1]	Drug uptake [2]	Drug uptake [5]	SMILES	Activity (PC-3 [3])	IC50 at 2 h [4]	Activity (PC-3 [6])
Active	Active	Active	O=[N+]([O-])c1ccc(-c2ccc(S[C@@H]3O[C@H](CO)[C@H](O)[C@H](O)[C@H]3O)cc2)cc1	Toxic	120 µM	–
–	–	–	O=[N+]([O-])c1ccc(-c2ccc(OCCCO[C@@H]3O[C@H](CO)[C@@H](O)[C@H](O)[C@H]3O)cc2)cc1	–	–	Toxic
–	–	–	O=[N+]([O-])c1ccc(-c2ccc(OCCCS[C@@H]3O[C@H](CO)[C@@H](O)[C@H](O)[C@H]3O)cc2)cc1	–	–	Toxic
–	–	Active	O=[N+]([O-])c1ccc(-c2ccc(S[C@H]3O[C@H](CO)[C@@H](O)[C@H](O)[C@@H]3O)cc2)cc1	Toxic	150 µM	–
–	–	–	O=[N+]([O-])c1ccc(-c2ccc(O[C@@H]3O[C@H](CO)[C@@H](O)[C@H](O)[C@H]3O)cc2)cc1	–	–	Non-Toxic
–	–	Active	O=[N+]([O-])c1ccc(-c2ccc(S[C@@H]3O[C@H](CO)[C@@H](O)[C@H](O)[C@H]3O)cc2)cc1	Non-Toxic	250 µM	Non-Toxic
–	–	–	O=[N+]([O-])c1ccc(-c2ccc(SCCCO[C@@H]3O[C@H](CO)[C@@H](O)[C@H](O)[C@H]3O)cc2)cc1	–	–	Toxic
